Measured values published in patent publication US20100314316A1, “HALOGENATED AMIDES AS BIOCIDES FOR TREATING WATER SYSTEMS CONTAINING REDUCING AGENTS” (priority 2009, published 2010).

Key:
Assay type in all cases: cell-based
[1] = tested on: bacteria isolated from paper mill white water; experiment: Biocidal efficacy of seven biocides in artificial white water; conditions: artificial white water pH 8.1, 37 C
Experimental: Sterile artificial White Water (111 mg of CaCl2, 60 mg of MgSO4, 168 mg of NaHCO3, 140 mg of K2HPO4, 480 mg of NH4Cl, 1.04 mg of FeCl3.6H2O, 1.48 mg of Na2EDTA, 3000 mg of Dextrose, 10 mg of Yeast Extract, in 1 L water, pH 8.1) is contaminated with field isolated bacteria at a concentration of approximately 10^7 CFU/mL. The aliquots of this contaminated water are then treated with eight dosage levels of DBMAL and six other commonly used biocides in paper mill white water application. The same aliquots of the contaminated water without biocide are used as controls. After incubating at 37° C. for 4 hours, the valid bacteria in the aliquots are enumerated using a serial dilution method and the bacterial log10 reduction is calculated by comparing the valid bacteria number of biocide treated water aliquots to that of controls. Table 4 compares the efficacy of the seven biocides, expressed by bacterial log10 reduction.

field isolated bacteria = experiment: Resistance of biocide to sulfite deactivation: biocide pretreated with sulfite in paper mill white water before efficacy testing; conditions: for Decrease of efficacy due to sulfite pretreatment (bacterial log10 reduction): 80 ppm sulfite, 4 hrs; for Bacterial log10 reduction after treatment of biocide for 4 hrs: white water about pH 7.5, 37 C
Experimental: 50 ppm to 80 ppm sulfite is representative of a sulfite level for pulp and paper applications. The same white water sample without sulfite is used as none sulfite comparison and the same whitewater samples containing no biocide and with or without sulfite are used as controls. The water samples are incubated at 37° C. for 5 min and then are inoculated with field isolated bacteria at a concentration of approximately 10^7 CFU/mL. The mixtures are then incubated at 37° C. for 4 hours. After that, the viable bacteria in the mixtures is enumerated using a serial dilution method.

[2] = tested on: bacteria in sulfite-containing white water; experiment: Biocidal efficacy in presence of sulfite in contaminated paper mill white water (1-96 hours); conditions: for Bacterial log10 reduction at time point after biocide addition: about 80 ppm sulfite; for Duration of effectiveness (>3 log10 killing) compared with DBNPA: sulfite-containing white water
Experimental: The same contaminated whitewater samples without biocide are used as controls. The mixtures are incubated at 37° C. with shaking (100 RPM) for 96 hrs. At 1 hr, 3 hrs, 24 hrs, 48 hrs, 72 hrs and 96 hrs time points after the biocide addition, the valid bacteria in the mixtures are enumerated using a serial dilution method and the bacterial log10 reduction is calculated by comparing the valid bacteria number of biocide treated water aliquots to that of controls. Starting from 24 hrs after the sampling, the mixtures are reinoculated with field isolated bacteria at about 10^5 CFU/mL and are supplied with additional sulfite to keep an 80 ppm sulfite concentration.

[3] = 80 ppm sulfite pretreated, 29.7 ppm biocide
[4] = 80 ppm sulfite pretreated, 44.5 ppm biocide
[5] = 80 ppm sulfite pretreated, 66.7 ppm biocide
[6] = 80 ppm sulfite pretreated, 100.0 ppm biocide
[7] = non-sulfite treated, 29.7 ppm biocide
[8] = non-sulfite treated, 44.5 ppm biocide
[9] = non-sulfite treated, 66.7 ppm biocide
[10] = non-sulfite treated, 100.0 ppm biocide
[11] = 25 ppm active, 1 hr, pH 7.6, 37 C
[12] = 25 ppm active, 3 hr, pH 7.6, 37 C
[13] = 25 ppm active, 24 hrs, pH 7.6, 37 C
[14] = 25 ppm active, 48 hrs, reinoculated from 24 hrs
[15] = 25 ppm active, 72 hrs, reinoculated from 24 hrs
[16] = 25 ppm active, 96 hrs, reinoculated from 24 hrs
[17] = 50 ppm active, 1 hr, pH 7.6, 37 C
[18] = 50 ppm active, 3 hr, pH 7.6, 37 C
[19] = 50 ppm active, 24 hrs, pH 7.6, 37 C
[20] = 50 ppm active, 48 hrs, reinoculated from 24 hrs
[21] = 50 ppm active, 72 hrs, reinoculated from 24 hrs
[22] = 50 ppm active, 96 hrs, reinoculated from 24 hrs

SMILES	Decrease of efficacy due to sulfite pretreatment (bacterial log10 reduction) (field isolated bacteria; 29.7 ppm biocide)	Decrease of efficacy due to sulfite pretreatment (bacterial log10 reduction) (field isolated bacteria; 44.5 ppm biocide)	Decrease of efficacy due to sulfite pretreatment (bacterial log10 reduction) (field isolated bacteria; 66.7 ppm biocide)	Bacterial log10 reduction after treatment of biocide for 4 hrs (field isolated bacteria; [3])	Bacterial log10 reduction after treatment of biocide for 4 hrs (field isolated bacteria; [4])	Bacterial log10 reduction after treatment of biocide for 4 hrs (field isolated bacteria; [5])	Bacterial log10 reduction after treatment of biocide for 4 hrs (field isolated bacteria; [6])	Decrease of efficacy due to sulfite pretreatment (bacterial log10 reduction) (field isolated bacteria; 100.0 ppm biocide)	Bacterial log10 reduction after treatment of biocide for 4 hrs (field isolated bacteria; [7])	Bacterial log10 reduction after treatment of biocide for 4 hrs (field isolated bacteria; [8])	Bacterial log10 reduction after treatment of biocide for 4 hrs (field isolated bacteria; [9])	Bacterial log10 reduction after treatment of biocide for 4 hrs (field isolated bacteria; [10])	Bacterial log10 reduction at time point after biocide addition [2, 11]	Bacterial log10 reduction at time point after biocide addition [2, 12]	Bacterial log10 reduction at time point after biocide addition [2, 13]	Bacterial log10 reduction at time point after biocide addition [2, 14]	Bacterial log10 reduction at time point after biocide addition [2, 15]	Bacterial log10 reduction at time point after biocide addition [2, 16]	Bacterial log10 reduction at time point after biocide addition [2, 17]	Minimum dosage (ppm, active) required for at least 3 log10 reduction in numbers of bacteria in 4 hours ([1]; approximately 10^7 CFU/mL)	other results
CC1(C)C(=O)N(Cl)C(=O)N1Br [BCDMH, 1-Bromo-3-chloro-5,5-dimethylhydantoin]	–	–	–	–	–	–	–	–	–	–	–	–	–	–	–	–	–	–	–	–	Minimum dosage (ppm, active) required for at least 3 log10 reduction in numbers of bacteria in 4 hours ([1]; active ppm measured by available bromine & chlorine (chlorine/bromine)): 71.74 (chlorine/bromine) ppm
N#CC(Br)(Br)C(N)=O [DBNPA, 2,2-Dibromo-3-nitrilopropionamide]	>=3.4 log10	>=4.4 log10	>=4.4 log10	1.3 log10	1.3 log10	1.3 log10	2.3 log10	>=3.4 log10	4.7 log10	>=5.7 log10	>=5.7 log10	>=5.7 log10	>=4.0 log10	>=4.0 log10	3.3 log10	1.5 log10	0.3 log10	0 log10	>=4.0 log10	128.00 ppm	Bacterial log10 reduction at time point after biocide addition [2, 18]: >=4.0 log10; Bacterial log10 reduction at time point after biocide addition [2, 19]: >=4.3 log10; Bacterial log10 reduction at time point after biocide addition [2, 20]: 4.5 log10; Bacterial log10 reduction at time point after biocide addition [2, 21]: 1.0 log10; Bacterial log10 reduction at time point after biocide addition [2, 22]: 0.7 log10
NCl [monochloramine]	–	–	–	–	–	–	–	–	–	–	–	–	–	–	–	–	–	–	–	–	Minimum dosage (ppm, active) required for at least 3 log10 reduction in numbers of bacteria in 4 hours ([1]; active expressed as chlorine): 8.00 (chlorine) ppm
NC(=O)C(Br)(Br)C(N)=O [DBMAL, 2,2-Dibromomalonamide]	0.7 log10	3.3 log10	2.7 log10	1.0 log10	1.0 log10	2.3 log10	2.3 log10	2.4 log10	1.7 log10	4.3 log10	5.0 log10	4.7 log10	2.5 log10	3.2 log10	4.2 log10	3.7 log10	1.5 log10	1.2 log10	>=4.0 log10	81.92 ppm	Decrease in efficacy when premixed with 80 ppm sulfite, compared with DBNPA (field isolated bacteria; premixed with 80 ppm sulfite): much smaller; Bacterial log10 reduction at time point after biocide addition [2, 18]: 3.8 log10; Bacterial log10 reduction at time point after biocide addition [2, 19]: >=4.3 log10; Bacterial log10 reduction at time point after biocide addition [2, 20]: 4.3 log10; Bacterial log10 reduction at time point after biocide addition [2, 21]: 4.2 log10; Bacterial log10 reduction at time point after biocide addition [2, 22]: 3.8 log10; Duration of effectiveness (>3 log10 killing) compared with DBNPA ([2]; same active concentration of 25 ppm): one more day; Duration of effectiveness (>3 log10 killing) compared with DBNPA ([2]; same active concentration of 50 ppm): two more days
O=CCCCC=O [Glutaraldehyde]	–	–	–	–	–	–	–	–	–	–	–	–	–	–	–	–	–	–	–	163.84 ppm	–
